Fold induction data for 20 compounds are collected here from US8785462B2, “5-hydroxypyrimidine-4-carboxamide derivative” (Daiichi Sankyo Company, Limited, priority 2009, dated 2014).

The fold induction is the ratio of treated to control signal.

This test concerns human liver cancer-derived cell line Hep3B. In words: In vitro erythropoietin (EPO) induction activity in Hep3B cells (human EPO ELISA of culture supernatant). The settings on record: test compound 12.5 μM, Hep3B cells cultured 24 hours at 37° C., multiple of the EPO concentration in the control (0.5% DMSO = 1). It counts as cell-based. The method, then:
In vitro erythropoietin (EPO) induction activity of test compounds was evaluated using human liver cancer-derived cell line Hep3B (ATCC, Manassas, Va.). Hep3B cells were cultured overnight at 37° C. in Dulbecco's modified Eagle's medium (DMEM) in the presence of 10% fetal bovine serum (FBS) (24-well plate, 1.0×10^5 cells/well). After replacing with fresh DMEM (+10% FBS) containing a test compound dissolved in 0.5% dimethyl sulfoxide (DMSO) (prepared to a concentration of 12.5 μM) or a solvent control (0.5% DMSO), the cells were cultured for 24 hours at 37° C. After recovering the culture supernatant, EPO concentration in the culture supernatant was quantified using a human EPO ELISA kit (StemCell Technologies).
The EPO concentration in the case of using a compound of each example as a test compound was expressed as a multiple of the EPO concentration in the control.
On the technique in general: ELISA stands for enzyme-linked immunosorbent assay.
The compound `Cc1nc(CC2CCN(c3ccc(-c4ccc(CO)cc4)cc3)CC2)nc(C(=O)NCC(=O)O)c1O` [Example 1, ({[5-Hydroxy-2-{(1-[4′-(hydroxymethyl)biphenyl-4-yl]piperidin-4-yl}methyl)-6-methylpyrimidin-4-yl]carbonyl}amino)acetic acid] displayed a fold induction at 12.5 µM of 55.

On to `Cc1nc(CC2CCN(c3ccc(-c4ccc(C(C)O)cc4)cc3)CC2)nc(C(=O)NCC(=O)O)c1O` (centres unmarked) [Example 3, ({[5-Hydroxy-2-{(1-[4′-(1-hydroxyethyl)biphenyl-4-yl]piperidin-4-yl}methyl)-6-methylpyrimidin-4-yl]carbonyl}amino)acetic acid], for which the fold induction at 12.5 µM is 24. On to `Cc1nc(CC2CCN(c3ccc(-c4ccc(CCO)cc4)cc3)CC2)nc(C(=O)NCC(=O)O)c1O` [Example 4, ({[5-Hydroxy-2-({1-[4′-(2-hydroxyethyl)biphenyl-4-yl]piperidin-4-yl}methyl)-6-methylpyrimidin-4-yl]carbonyl}amino)acetic acid], for which the fold induction at 12.5 µM is 73. As for `Cc1nc(CC2CCN(c3ccc(-c4ccc(CC(C)O)cc4)cc3)CC2)nc(C(=O)NCC(=O)O)c1O` (centres unmarked) [Example 5, ({[5-Hydroxy-2-{(1-[4′-(2-hydroxypropyl)biphenyl-4-yl]piperidin-4-yl}methyl)-6-methylpyrimidin-4-yl]carbonyl}amino)acetic acid], the figure is 48; as for `Cc1nc(CC2CCN(c3ccc(-c4ccc(C(C)(C)CO)cc4)cc3)CC2)nc(C(=O)NCC(=O)O)c1O` [Example 6, ({[5-Hydroxy-2-{(1-[4′-(2-hydroxy-1,1-dimethylethyl)biphenyl-4-yl]piperidin-4-yl}methyl)-6-methylpyrimidin-4-yl]carbonyl}amino)acetic acid], 36; as for `Cc1nc(CC2CCN(c3ccc(-c4ccc(C(=O)N(C)C)cc4)cc3)CC2)nc(C(=O)NCC(=O)O)c1O` [Example 7, ({[2-{(1-[4′-(Dimethylcarbamoyl)biphenyl-4-yl]piperidin-4-yl}methyl)-5-hydroxy-6-methylpyrimidin-4-yl]carbonyl}amino)acetic acid], 50. The same measure for `CNC(=O)c1ccc(-c2ccc(N3CCC(Cc4nc(C)c(O)c(C(=O)NCC(=O)O)n4)CC3)cc2)cc1` [Example 8, ({[5-Hydroxy-6-methyl-2-{(1-[4′-(methylcarbamoyl)biphenyl-4-yl]piperidin-4-yl}methyl)pyrimidin-4-yl]carbonyl}amino)acetic acid]: 94.

As to `Cc1nc(CC2CCN(c3ccc(-c4ccc(CC(=O)N(C)C)cc4)cc3)CC2)nc(C(=O)NCC(=O)O)c1O` [Example 9, [({2-[(1-{4′-[2-(Dimethylamino)-2-oxoethyl]biphenyl-4-yl}piperidin-4-yl)methyl]-5-hydroxy-6-methylpyrimidin-4-yl}carbonyl)amino]acetic acid], the fold induction at 12.5 µM stood at 36.

In turn, `CCOC(=O)c1ccc(-c2ccc(N3CCC(Cc4nc(C)c(O)c(C(=O)NCC(=O)O)n4)CC3)cc2)nc1` [Example 16, [({2-[(1-{4-[5-(Ethoxycarbonyl)pyridin-2-yl]phenyl}piperidin-4-yl)methyl]-5-hydroxy-6-methylpyrimidin-4-yl}carbonyl)amino]acetic acid] yielded a fold induction at 12.5 µM of 47. In the case of `Cc1nc(CC2CCN(c3ccc(-c4ccc(CC(C)O)cc4)cn3)CC2)nc(C(=O)NCC(=O)O)c1O` (centres unmarked) [Example 20, [({5-Hydroxy-2-[(1-{5-[4-(2-hydroxypropyl)phenyl]pyridin-2-yl}piperidin-4-yl)methyl]-6-methylpyrimidin-4-yl}carbonyl)amino]acetic acid], the fold induction at 12.5 µM amounted to 11.

In turn, `Cc1nc(CC2CCN(c3ccc(-c4ccc(CO)c(Cl)c4)cc3)CC2)nc(C(=O)NCC(=O)O)c1O` [Example 24, ({[2-{(1-[3′-Chloro-4′-(hydroxymethyl)biphenyl-4-yl]piperidin-4-yl}methyl)-5-hydroxy-6-methylpyrimidin-4-yl]carbonyl}amino)acetic acid] gave a fold induction at 12.5 µM of 30.

As to `Cc1cc(CO)ccc1-c1ccc(N2CCC(Cc3nc(C)c(O)c(C(=O)NCC(=O)O)n3)CC2)cc1` [Example 25, ({[5-Hydroxy-2-{(1-[4′-(hydroxymethyl)-2′-methylbiphenyl-4-yl]piperidin-4-yl}methyl)-6-methylpyrimidin-4-yl]carbonyl}amino)acetic acid], the fold induction at 12.5 µM was determined as 22. The same measure for `Cc1cc(-c2ccc(N3CCC(Cc4nc(C)c(O)c(C(=O)NCC(=O)O)n4)CC3)cc2C)ccc1CO` [Example 26, ({[5-Hydroxy-2-({1-[4′-(hydroxymethyl)-2,3′-dimethylbiphenyl-4-yl]piperidin-4-yl}methyl)-6-methylpyrimidin-4-yl]carbonyl}amino)acetic acid]: 13.

Turning to `CCC(O)Cc1ccc(-c2ccc(N3CCC(Cc4nc(C)c(O)c(C(=O)NCC(=O)O)n4)CC3)cc2)cc1` (centres unmarked) [Example 27, ({[5-Hydroxy-2-{(1-[4′-(2-hydroxybutyl)biphenyl-4-yl]piperidin-4-yl}methyl)-6-methylpyrimidin-4-yl]carbonyl}amino)acetic acid], the fold induction at 12.5 µM was determined as 30.

Consider `Cc1nc(CC2CCN(c3ccc(-c4ccc(C(F)(F)CO)cc4)cc3)CC2)nc(C(=O)NCC(=O)O)c1O` [Example 30, ({[2-{(1-[4′-(1,1-Difluoro-2-hydroxyethyl)biphenyl-4-yl]piperidin-4-yl}methyl)-5-hydroxy-6-methylpyrimidin-4-yl]carbonyl}amino)acetic acid], for which the fold induction at 12.5 µM amounted to 23.

With `COCc1ccc(-c2ccc(N3CCC(Cc4nc(C)c(O)c(C(=O)NCC(=O)O)n4)CC3)cc2)cc1` [Example 35, ({[5-Hydroxy-2-{(1-[4′-(methoxymethyl)biphenyl-4-yl]piperidin-4-yl}methyl)-6-methylpyrimidin-4-yl]carbonyl}amino)acetic acid], the fold induction at 12.5 µM worked out at 53. As for `Cc1nc(CC2CCN(c3ccc(-c4ccc(CO)cc4F)cc3)CC2)nc(C(=O)NCC(=O)O)c1O` [Example 36, ({[2-{(1-[2′-Fluoro-4′-(hydroxymethyl)biphenyl-4-yl]piperidin-4-yl}methyl)-5-hydroxy-6-methylpyrimidin-4-yl]carbonyl}amino)acetic acid], the figure is 25; as for `Cc1nc(CC2CCN(c3ccc(-c4ccc(CO)c(F)c4)cc3)CC2)nc(C(=O)NCC(=O)O)c1O` [Example 37, ({[2-({1-[3′-Fluoro-4′-(hydroxymethyl)biphenyl-4-yl]piperidin-4-yl}methyl)-5-hydroxy-6-methylpyrimidin-4-yl]carbonyl}amino)acetic acid], 31. As to `Cc1nc(CC2CCN(c3ccc(-c4ccc(CO)cc4)c(F)c3)CC2)nc(C(=O)NCC(=O)O)c1O` [Example 38, ({[2-({1-[2-Fluoro-4′-(hydroxymethyl)biphenyl-4-yl]piperidin-4-yl}methyl)-5-hydroxy-6-methylpyrimidin-4-yl]carbonyl}amino)acetic acid], the fold induction at 12.5 µM turned out to be 24.

Consider `Cc1nc(CC2CCN(c3ccc(-c4ccc(CO)cc4)cc3F)CC2)nc(C(=O)NCC(=O)O)c1O` [Example 39, ({[2-{(1-[3-Fluoro-4′-(hydroxymethyl)biphenyl-4-yl]piperidin-4-yl}methyl)-5-hydroxy-6-methylpyrimidin-4-yl]carbonyl}amino)acetic acid], for which the fold induction at 12.5 µM was determined as 18.
